Converted amounts (≈) assume the structure as drawn.

The nature of data set [1]: Antiproliferative activity against human WERI cells assessed as inhibition of cell proliferation by propidium iodide uptake based fluoroskan microplate reader analysis. It counts as functional.
The nature of data set [2]: Antiproliferative activity against human WERI cells assessed as inhibition of cell proliferation by measuring normalized ratio of propidium iodide uptake at 5 uM by propidium iodide uptake based fluoroskan microplate reader analysis. It counts as functional.
A short description of data set [3]: Antiproliferative activity against human WERI cells assessed as inhibition of cell proliferation by measuring normalized ratio of propidium iodide uptake at 10 uM by propidium iodide uptake based fluoroskan microplate reader analysis. It counts as functional.
The nature of data set [4]: Antiproliferative activity against human MCF10A cells assessed as inhibition of cell proliferation at 10 uM incubated for 72 hrs by Cell-titer-Glo cell viability assay. It counts as cell-based, MCF-10A.
The subject of the next data set is Y79. As to the kind of experiment: Antiproliferative activity against human Y79 cells assessed as inhibition of cell proliferation at 10 uM incubated for 72 hrs by Cell-titer-Glo cell viability assay. It counts as functional. Particulars: Y79, 72 h.
The nature of data set [5]: Antiproliferative activity against human DMS53 cells assessed as inhibition of cell proliferation at 10 uM incubated for 72 hrs by Cell-titer-Glo cell viability assay. It counts as functional. Particulars: DMS-53, 72 h.
Another data set has as its system HeLa. Nature of the data set: Antiproliferative activity against human HeLa cells assessed as inhibition of cell proliferation at 10 uM incubated for 72 hrs by Cell-titer-Glo cell viability assay. It counts as functional.
The nature of data set [6]: Antiproliferative activity against mouse B16F10 cells assessed as inhibition of cell proliferation at 10 uM incubated for 72 hrs by Cell-titer-Glo cell viability assay. As to conditions: B16-F10, 72 h. It counts as functional.
Data set [7] is described as follows: Antiproliferative activity against human WI38 cells assessed as inhibition of cell proliferation at 10 uM incubated for 72 hrs by Cell-titer-Glo cell viability assay. It counts as cell-based, WI-38.
The next data set relates to MCF7. Nature of the data set: Antiproliferative activity against human MCF7 cells assessed as inhibition of cell proliferation at 10 uM incubated for 72 hrs by Cell-titer-Glo cell viability assay. It counts as functional. Particulars: MCF7, 72 h.
A short description of data set [8]: Stability in rat microsomes assessed half life. It counts as ADME, Microsome.
Data set [9] is described as follows: Solubility in aqueous solution. It counts as physicochemical.

With `CCCc1c(Cc2cccc(Cl)c2)c(=O)[nH]c2cc(OC)cc(OC)c12`, the IC50 (as a rule, the midpoint of a concentration-inhibition curve) in data set [1] worked out at 960 nM. For the same compound, the Ratio in data set [2] worked out at 0.072; in data set [3], 0.037.
For `Cc1ccc2c(c1)CCCN2C(=O)c1sc2ccc(F)cc2c1Cl`, the IC50 in data set [1] was 4520 nM. For the same compound, the Ratio came out at 0.321 in data set [2] and 0.064 in data set [3].
As for `COc1ccc2c(c1)CCNC2c1sc2ccccc2c1Cl` (stereo unspecified), in [1], the IC50 stood at 1000 nM. Also, the Ratio in data set [2] is listed as 0.016; in [3], 0.003.
As to `COc1cccc2c1CCN=C2c1sc2cccc(C)c2c1Cl`, the inhibition at 72 h, 10 µM in [4] and in data set [7] was above 40% throughout. In addition, the inhibition at 10 µM (in the data set on Y79; in data set [5]; in the data set with HeLa; in data set [6]; with MCF7) was above 40% throughout. The concentration for half-maximal inhibition (IC50) in data set [1] was found to be 360 nM. The Ratio in data set [2] was 0.042; in data set [3], 0.13.
In the case of `Cc1ccc2c(c1)CCN=C2c1sc2ccccc2c1Cl`, the inhibition (in general, the relative decrease from the control value, in per cent) at 72 h, 10 µM in [4] is above 40%. The inhibition at 10 µM (in the data set on Y79; with HeLa; in data set [6]) was above 40% throughout. Besides, the concentration for half-maximal inhibition (IC50) in data set [1] was determined as 1830 nM. For the same compound, the Ratio is given as 0.011 in data set [2] and 0.003 in data set [3].
Consider `COc1ccc2c(c1)CCN(C)C2c1sc2ccccc2c1Cl` (stereo unspecified), for which the IC50 in data set [1] stood at 4340 nM. In addition, the results for the Ratio in [2] and in data set [3] were 0.344 and 0.027, respectively.
Turning to `COc1ccc2c(c1)C(c1sc3cccc(C)c3c1Cl)=NCC2`, the inhibition at 72 h, 10 µM in data set [4] and in [7] was above 40% each time. Further, the inhibition at 10 µM (with Y79; in [5]; with HeLa; with MCF7) was above 40% in each case. Moreover, the IC50 in data set [1] is 1310 nM. Also, the Ratio amounted to 0.019 in data set [2] and 0.047 in data set [3].
As for `COc1ccc2c(Cl)c(C3NCCc4cc(OC)c(OC)cc43)sc2c1` (stereo unspecified), the half-life (commonly the time needed for the level to fall by half in the phase considered) in data set [8] was above 30 min. Further, in data set [9], the concentration in solution (solubility) came to 100 µM (≈ 39 µg/mL).
In the case of `Cc1ccc2c(c1)CCCN2C(=O)c1sc2cccc(F)c2c1Cl`, in data set [1], the half-maximal inhibitory concentration (IC50) was found to be 3290 nM. Also, the Ratio came to 0.273 in data set [2] and 0.097 in data set [3].
Regarding `COc1ccc(C)c(N(Cc2cccnc2)C(=O)c2sc3ccccc3c2Cl)c1`, in data set [1], the IC50 was 2370 nM. Further, the inhibition at 10 µM in the data set on HeLa was above 40%. The values for the Ratio in [2] and in [3] were 0.08 and 0.1, respectively.
Take `COc1cc2c(cc1OC)C(c1sc3cccc(F)c3c1Cl)NCC2` (stereo unspecified): the IC50 in data set [1] was found to be 490 nM. The results for the Ratio in [2] and in [3] were 0.009 and 0, respectively.
The matching figures for `Cc1c(Cc2ccc(Cl)c(Cl)c2)c(=O)oc2cc(O)c(F)cc12`: 4030 nM, 0.314 and 0.002.
With `Fc1ccc2c(c1)CCCN2Cc1sc2ccccc2c1Cl`, the concentration for half-maximal inhibition (IC50) in data set [1] worked out at 4090 nM. For the same compound, the Ratio in data set [2] is 0.286; in data set [3], 0.098.
Regarding `COc1cc(OC)c2c(C)c(Cc3ccccc3)c(=O)[nH]c2c1`, the half-life in data set [8] is above 30 min.
With `Cc1ccc(S(=O)(=O)Nc2sc3ccccc3c2Cl)cc1`, the IC50 in data set [1] was found to be 3590 nM. Also, the results for the Ratio in data set [2] and in data set [3] were 0.297 and 0.121, respectively.
Take `COc1cc2c(cc1OC)C(c1sc3ccccc3c1Cl)NCC2` (stereo unspecified): the IC50 in data set [1] came out at 80 nM. Also, the Ratio in data set [2] worked out at 0.019; in data set [3], 0.
For `COc1ccc2c(c1)C(c1sc3ccccc3c1Cl)=NCC2`, the half-inhibitory concentration (IC50) in data set [1] came out at 3210 nM. For the same compound, the figures for the Ratio in data set [2] and in [3] were 0.36 and 0.07, respectively.
As for `COc1cc2c(cc1OC)C(c1sc3ccccc3c1Cl)N(C)CC2` (stereo unspecified), in [1], the 50% inhibitory concentration (IC50) was 1770 nM. The figures for the Ratio in data set [2] and in [3] were 0.042 and 0, respectively.
`CC1c2ccsc2CCN1C(=O)c1sc2ccccc2c1Cl` (stereo unspecified): the half-maximal inhibitory concentration (IC50) in data set [1] stood at 1550 nM. For the same compound, the Ratio in data set [2] amounted to 0; in data set [3], 0.056.
Regarding `Cc1c(Cc2cccc(Cl)c2)c(=O)oc2cc(O)ccc12`, the 50% inhibitory concentration (IC50) in data set [1] came out at 5590 nM. Further, the values for the Ratio in data set [2] and in data set [3] were 0.41 and 0.041, respectively.
With `Clc1cccc2c1CCN=C2c1sc2ccccc2c1Cl`, in [1], the IC50 was found to be 2260 nM. The Ratio in data set [2] worked out at 0.065; in data set [3] it was 0.1.
The matching figures for `CN(Cc1ccccc1N1CCCC1)C(=O)c1sc2ccccc2c1Cl`: 3440 nM, 0.234 and 0.043.
Take `O=C(c1sc2ccccc2c1Cl)N1CCCc2ccccc21`: in [1], the IC50 amounted to 9800 nM. Besides, the results for the Ratio in [2] and in data set [3] were 0.545 and 0.216, respectively.
For `COc1ccc2c(Cl)c(C(=O)N3CCCc4cc(C)ccc43)sc2c1`, the inhibition at 72 h, 10 µM in [4] and in data set [7] was above 40% each time. For the same compound, the inhibition at 10 µM (with Y79; in data set [5]; in the data set with HeLa; in data set [6]; in the data set on MCF7) was above 40% each time. Besides, the IC50 in data set [1] was 4030 nM. For the same compound, the Ratio in data set [2] was 0.294; in [3], 0.11.
Take `Cc1ccc(N(Cc2cccc(C)n2)C(=O)c2sc3ccccc3c2Cl)c(C)c1`: the inhibition at 10 µM (in the data set on Y79; in the data set on HeLa; in [6]) was above 40% in each case. Besides, the concentration for half-maximal inhibition (IC50) in data set [1] turned out to be 840 nM. For the same compound, the figures for the Ratio in data set [2] and in [3] were 0 and 0.1, respectively.
For the compound `COc1ccc2sc(C(=O)N3CCCc4cc(C)ccc43)c(Cl)c2c1`, in data set [4], the inhibition at 72 h, 10 µM was above 40%. Besides, the inhibition at 10 µM (with Y79; in the data set on HeLa; in data set [6]; with MCF7) was above 40% each time. Also, in [1], the IC50 is 2830 nM. Besides, the Ratio in data set [2] was 0.116; in data set [3], 0.051.
With `Cc1ccc(N(C)C(=O)c2sc3ccccc3c2Cl)c(C)c1`, the half-inhibitory concentration (IC50) in [1] came out at 4570 nM. The Ratio in [2] was determined as 0.53; in [3], 0.33.
The matching figures for `COc1ccc2c(c1)CCCN2C(=O)c1sc2ccccc2c1Cl`: 5660 nM, 0.695 and 0.276.
The matching figures for `COc1cc2c(cc1OC)CN(C(=O)c1sc3ccccc3c1Cl)CC2`: 620 nM, 0.042 and 0.024.
Take `COc1ccc(C)c(N(Cc2ccncc2)C(=O)c2sc3ccccc3c2Cl)c1`: in data set [1], the half-maximal inhibitory concentration (IC50) is 5730 nM. In addition, the inhibition at 10 µM in the data set with HeLa was above 40%. In addition, the Ratio is given as 0.573 in data set [2] and 0.228 in data set [3].
Turning to `O=C(c1sc2ccccc2c1Cl)N1CCCc2cc(Cl)ccc21`, in data set [1], the IC50 is 3690 nM. The Ratio in data set [2] is reported as 0.267; in data set [3], 0.049.
For `COc1cc2c(cc1OC)C(c1sc3cccc(C)c3c1Cl)NCC2` (stereo unspecified), the solubility (as a rule, the dissolved amount per volume that the medium holds) in data set [9] is 100 µM (≈ 37.4 µg/mL).
For `Cc1c(Cc2c(F)cccc2Cl)c(=O)oc2cc(O)cc(O)c12`, the half-life in data set [8] was 5 min. Also, the values for the Ratio in data set [2] and in data set [3] were 0.721 and 0.102, respectively.
As for `O=C(NCc1ccccc1N1CCCC1)c1sc2ccccc2c1Cl`, the inhibition at 72 h, 10 µM in data set [4] was above 40%. Also, the inhibition at 10 µM (in the data set with Y79; in [5]; with HeLa; in data set [6]; in the data set with MCF7) was above 40% each time. Also, the IC50 in [1] is 1250 nM. Besides, the results for the Ratio in data set [2] and in data set [3] were 0.195 and 0.375, respectively.
For the compound `Cc1ccc2c(c1)CCCN2C(=O)c1sc2cccc(C)c2c1Cl`, in data set [1], the concentration for half-maximal inhibition (IC50) came out at 2020 nM. Moreover, the Ratio in data set [2] is 0.235; in data set [3], 0.4.
`COc1cc2c(cc1OC)C(c1sc3cccc(C)c3c1Cl)=NCC2`: the inhibition at 72 h, 10 µM in [4] and in [7] was above 40% in each case. Besides, the inhibition at 10 µM (with Y79; in data set [5]; in the data set on HeLa; in [6]; with MCF7) was above 40% throughout. In addition, the IC50 in data set [1] turned out to be 340 nM. This compound also showed a solubility in data set [9] of 100 µM (≈ 37.2 µg/mL). In addition, the results for the Ratio in data set [2] and in data set [3] were 0.042 and 0.028, respectively.
Take `COc1cc2c(cc1OC)C(c1sc3ccccc3c1Cl)=NCC2`: in data set [1], the IC50 was 50 nM. Besides, the solubility in data set [9] amounted to 100 µM (≈ 35.8 µg/mL). The Ratio in [2] was determined as 0.011; in data set [3], 0.
For `COc1cc(OC)c2c(C)c(Cc3cccc(Cl)c3)c(=O)oc2c1`, the IC50 in data set [1] was determined as 770 nM. Further, the Ratio in data set [2] is on record as 0.088; in [3] it was 0.19.
With `COc1cc2c(cc1OC)C(c1sc3cccc(OC)c3c1Cl)NCC2` (stereo unspecified), the IC50 in [1] amounted to 320 nM. The Ratio in data set [2] was 0.008; in data set [3] it was 0.012.

For the origin of these results see ChEMBL document CHEMBL3714762, “Agents and methods for treating ischemic and other diseases” (2012).
